Where a SMILES comes first, the peptide text is derived from it. Bridges are numbered along the chain shown (N, C = ends). [ ]: non-standard residue; d: D form. The star is where a group is joined. ξ: configuration not given here. Phe(3-CF3) = N[C@@H](Cc1cccc(C(F)(F)F)c1)C(=O)O; Phe(4-CONH2) = NC(=O)c1ccc(C[C@H](N)C(=O)O)cc1; Phe(4-COOH) = N[C@@H](Cc1ccc(C(=O)O)cc1)C(=O)O; Bip = N[C@@H](Cc1ccc(-c2ccccc2)cc1)C(=O)O; NH(CH2)14COOH = O=C(O)CCCCCCCCCCCCCCN*; Phe(3-Me) = Cc1cccc(C[C@H](N)C(=O)O)c1; NH(CH2)12COOH = O=C(O)CCCCCCCCCCCCN*; Val(3-OH) = CC(C)(O)[C@H](N)C(=O)O; 4Pal = N[C@@H](Cc1ccncc1)C(=O)O; Cha = N[C@@H](CC1CCCCC1)C(=O)O; Cit = NC(=O)NCCC[C@H](N)C(=O)O; Ile(3ξ) = CCC(C)[C@H](N)C(=O)O; Thr(3ξ) = CC(O)[C@H](N)C(=O)O; 12Ado = NCCCCCCCCCCCC(=O)O; Carboxymethyl = O=C(O)C*; NMeA = CN[C@@H](C)C(=O)O; Orn = NCCC[C@H](N)C(=O)O; Aun = NCCCCCCCCCCC(=O)O; Dab = NCC[C@H](N)C(=O)O; Dap = NC[C@H](N)C(=O)O; AEEA = NCCOCCOCC(=O)O

For one test, the target named is T1, PD-1/PD-L1 interaction (PE-labeled human PD-L1-Ig binding to Jurkat cell line over-expressing human PD-1) (Homo sapiens, UniProt Q15116).
T1 construct: expressed in transfected cells; host or cells: Jurkat
T1 sequence (Q15116 25-288): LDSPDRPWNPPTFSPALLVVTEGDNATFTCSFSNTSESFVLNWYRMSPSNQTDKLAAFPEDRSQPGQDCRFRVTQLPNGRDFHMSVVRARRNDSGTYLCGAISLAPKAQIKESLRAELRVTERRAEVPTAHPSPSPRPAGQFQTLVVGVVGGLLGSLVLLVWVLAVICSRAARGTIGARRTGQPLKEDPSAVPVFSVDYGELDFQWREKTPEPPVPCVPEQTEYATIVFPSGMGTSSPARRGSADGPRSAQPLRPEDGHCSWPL
Put plainly: Jurkat-PD-1 Cell Binding High-Content Screening Assay (CBA). The settings on record: Jurkat-hPD-1 cells, PE-labeled PD-L1-Ig 20 nM final; read-out: Jurkat HPD1 PDL1 IC50. In a few lines: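 Read-out: high-content imaging of cell-bound PE fluorescence, with Hoechst 33342 nuclear counterstain after paraformaldehyde fixation. Before labeled ligand (20 nM final, 1 h) was added, compound sat on the cells for 2 h at 37 °C in DMEM/10% FCS.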
A word on the IC50: it is the concentration at which inhibition is half-maximal. For the compound `CC(C)C[C@H]1NC(=O)[C@H](C)N(C)C(=O)[C@H](C(C)C)NC(=O)[C@H](Cc2ccc(-c3ccccc3)cc2)NC(=O)[C@H](C(C)C)NC(=O)[C@H](Cc2c[nH]c3ccccc23)NC(=O)[C@H](CC(=O)O)NC(=O)[C@H](Cc2ccc(C(=O)O)cc2)NC(=O)[C@H](Cc2ccc(OCC(=O)O)cc2)NC(=O)CSC[C@@H](C(=O)N[C@@H](CCCN)C(=O)NCCOCCOCC(=O)NCCCCCCCCCCC(=O)O)NC(=O)[C@H](CO)NC(=O)[C@H](C(C)C)NC(=O)[C@H](CC2CCCCC2)NC(=O)[C@H](CCN)NC1=O` [Example 2110] ({CH2CO}-Y(Carboxymethyl)[Phe(4-COOH)]DWV[Bip]V[NMeA][dL][Dab][Cha]VSC[Orn][AEEA][Aun]-OH; thioether N-14), the IC50 turned out to be 17 nM.

Consider `CC(C)C[C@H]1NC(=O)[C@H](C)N(C)C(=O)[C@H](CCC(N)=O)NC(=O)[C@H](Cc2ccc(-c3ccccc3)cc2)NC(=O)[C@H](Cc2ccc(C(=O)O)cc2)NC(=O)[C@H](Cc2cccc(C(F)(F)F)c2)NC(=O)[C@H](CC(=O)O)NC(=O)[C@H](Cc2ccc(OCC(=O)O)cc2)NC(=O)[C@H](Cc2ccc(C(=O)O)cc2)NC(=O)CSC[C@@H](C(=O)N[C@@H](CCN)C(=O)NCCCCCCCCCCCCC(=O)O)NC(=O)[C@H](CCC(=O)O)NC(=O)[C@H](C(C)C)NC(=O)[C@H](CC2CCCCC2)NC(=O)[C@H](CCN)NC1=O` [Example 1143] ({CH2CO}-[Phe(4-COOH)]Y(Carboxymethyl)D[Phe(3-CF3)][Phe(4-COOH)][Bip]Q[NMeA][dL][Dab][Cha]VEC[Dab]-{NH(CH2)12COOH}; thioether N-14), for which the IC50 was found to be 21.4 nM.

For the compound `Cc1cccc(C[C@@H]2NC(=O)[C@H](CC(=O)O)NC(=O)[C@H](Cc3ccc(OCC(=O)O)cc3)NC(=O)[C@H](Cc3ccncc3)NC(=O)CSC[C@@H](C(=O)N[C@@H](CCN)C(=O)NCCCCCCCCCCC(=O)O)NC(=O)[C@H](CO)NC(=O)[C@H](CO)NC(=O)[C@H](CC3CCCCC3)NC(=O)[C@H](CCN)NC(=O)[C@@H](CC(C)C)NC(=O)[C@H](C)N(C)C(=O)[C@H](Cc3ccc(OCC(=O)O)cc3)NC(=O)[C@H](Cc3ccc(-c4ccccc4)cc3)NC(=O)[C@H](Cc3ccc(OCC(=O)O)cc3)NC2=O)c1` [Example 2454] ({CH2CO}-[4Pal]Y(Carboxymethyl)D[Phe(3-Me)]Y(Carboxymethyl)[Bip]Y(Carboxymethyl)[NMeA][dL][Dab][Cha]SSC[Dab][Aun]-OH; thioether N-14), the IC50 was found to be 11.1 nM.

Regarding `CCC(C)[C@@H]1NC(=O)[C@H](Cc2ccc(-c3ccccc3)cc2)NC(=O)[C@H](CC(C)C)NC(=O)[C@H](Cc2cccc(C)c2)NC(=O)[C@H](CC(=O)O)NC(=O)[C@H](Cc2ccc(O)cc2)NC(=O)[C@H](Cc2ccncc2)NC(=O)CSC[C@@H](C(=O)N[C@@H](CN)C(=O)NCCCCCCCCCCC(=O)O)NC(=O)[C@H](CCCN)NC(=O)[C@H](C(C)C)NC(=O)[C@H](CC(C)C)NC(=O)[C@H](CCN)NC(=O)[C@@H](C)NC(=O)[C@H](C)N(C)C1=O` (stereo partly drawn) [Example 2202] ({CH2CO}-[4Pal]YD[Phe(3-Me)]L[Bip][Ile(3ξ)][NMeA][dA][Dab]LV[Orn]C[Dap][Aun]-OH; thioether N-14), the IC50 is 31.3 nM.

For the compound `Cc1cccc(C[C@@H]2NC(=O)[C@H](CC(=O)O)NC(=O)[C@H](Cc3ccc(OCC(=O)O)cc3)NC(=O)[C@H](C(C)O)NC(=O)CSC[C@@H](C(=O)N[C@@H](CCCN)C(=O)N[C@@H](CO)C(=O)NCCCCCCCCCCCC(=O)O)NC(=O)[C@H](C(C)O)NC(=O)[C@H](C(C)C)NC(=O)[C@H](CC3CCCCC3)NC(=O)[C@H](CCN)NC(=O)[C@@H](CC(C)C)NC(=O)[C@H](C)N(C)C(=O)[C@H](CCCNC(N)=O)NC(=O)[C@H](Cc3ccc(-c4ccccc4)cc3)NC(=O)[C@H](C(C)C)NC2=O)c1` (stereo partly drawn) [Example 2412] ({CH2CO}-[Thr(3ξ)]Y(Carboxymethyl)D[Phe(3-Me)]V[Bip][Cit][NMeA][dL][Dab][Cha]V[Thr(3ξ)]C[Orn]S[12Ado]-OH; thioether N-14), the IC50 is 12.9 nM.

As for `CC[C@H](C)[C@@H]1NC(=O)[C@H](Cc2ccc(-c3ccccc3)cc2)NC(=O)[C@H](CC(C)C)NC(=O)[C@H](Cc2c[nH]c3ccccc23)NC(=O)[C@H](CC(=O)O)NC(=O)[C@H](Cc2ccc(C(=O)O)cc2)NC(=O)[C@H](Cc2ccc(OCC(=O)O)cc2)NC(=O)CSC[C@@H](C(=O)N[C@@H](CCCNC(=N)N)C(=O)NCCOCCOCC(=O)NCCCCCCCCCCC(=O)O)NC(=O)[C@H](CO)NC(=O)[C@H](C(C)C)NC(=O)[C@H](CC2CCCCC2)NC(=O)[C@H](CCN)NC(=O)[C@@H](CC(C)C)NC(=O)[C@H](C)N(C)C1=O` [Example 1080] ({CH2CO}-Y(Carboxymethyl)[Phe(4-COOH)]DWL[Bip]I[NMeA][dL][Dab][Cha]VSCR[AEEA][Aun]-OH; thioether N-14), the IC50 amounted to 18.6 nM.

In the case of `CC(C)C[C@@H]1NC(=O)[C@H](Cc2c[nH]c3ccccc23)NC(=O)[C@H](CC(=O)O)NC(=O)[C@H](Cc2ccc(C(=O)O)cc2)NC(=O)[C@H](Cc2ccc(OCC(=O)O)cc2)NC(=O)CSC[C@@H](C(=O)NCC(=O)N[C@@H](CCN)C(=O)NCC(=O)NCCCCCCCCCCC(=O)O)NC(=O)[C@H](CO)NC(=O)[C@H](C(C)C)NC(=O)[C@H](CC2CCCCC2)NC(=O)[C@H](CCN)NC(=O)[C@@H](CC(C)C)NC(=O)[C@H](C)N(C)C(=O)[C@H](C(C)C)NC(=O)[C@H](Cc2ccc(-c3ccccc3)cc2)NC1=O` [Example 1029] ({CH2CO}-Y(Carboxymethyl)[Phe(4-COOH)]DWL[Bip]V[NMeA][dL][Dab][Cha]VSCG[Dab]G[Aun]-OH; thioether N-14), the IC50 was 9 nM.

Still in this test, the particulars now being: PE-labeled PD-L1-Ig 20 nM final, Jurkat-hPD-1 cells; read-out: Jurkat HPD1 PDL1 IC50.
Turning to `CC(C)C[C@H]1NC(=O)[C@H](C)N(C)C(=O)[C@H](CCC(N)=O)NC(=O)[C@H](Cc2ccc(-c3ccccc3)cc2)NC(=O)[C@H](Cc2ccc(C(=O)O)cc2)NC(=O)[C@H](Cc2cccc(C(F)(F)F)c2)NC(=O)[C@H](CC(=O)O)NC(=O)[C@H](Cc2ccc(OCC(=O)O)cc2)NC(=O)[C@H](Cc2ccc(OCC(=O)O)cc2)NC(=O)CSC[C@@H](C(=O)N[C@@H](CCN)C(=O)NCCOCCOCC(=O)NCCOCCOCC(=O)NCCCCCCCCCCCCCCC(=O)O)NC(=O)[C@H](CO)NC(=O)[C@H](C(C)(C)O)NC(=O)[C@H](CC2CCCCC2)NC(=O)[C@H](CCN)NC1=O` [Example 2614] ({CH2CO}-Y(Carboxymethyl)Y(Carboxymethyl)D[Phe(3-CF3)][Phe(4-COOH)][Bip]Q[NMeA][dL][Dab][Cha][Val(3-OH)]SC[Dab][AEEA][AEEA]-{NH(CH2)14COOH}; thioether N-14), the IC50 was determined as 190 nM.

Consider `CCC(C)[C@@H]1NC(=O)[C@H](Cc2ccc(-c3ccccc3)cc2)NC(=O)[C@H](Cc2ccc(C(N)=O)cc2)NC(=O)[C@H](Cc2cccc(C)c2)NC(=O)[C@H](CC(=O)O)NC(=O)[C@H](Cc2ccc(OCC(=O)O)cc2)NC(=O)[C@H](C(C)O)NC(=O)CSC[C@@H](C(=O)N[C@@H](CCN)C(=O)NCCOCCOCC(=O)NCCCCCCCCCCC(=O)O)NC(=O)[C@H](C(C)O)NC(=O)[C@H](C(C)(C)O)NC(=O)[C@H](CC2CCCCC2)NC(=O)[C@H](CCN)NC(=O)[C@@H](CC(C)C)NC(=O)[C@H](C)N(C)C1=O` (stereo partly drawn) [Example 2471] ({CH2CO}-[Thr(3ξ)]Y(Carboxymethyl)D[Phe(3-Me)][Phe(4-CONH2)][Bip][Ile(3ξ)][NMeA][dL][Dab][Cha][Val(3-OH)][Thr(3ξ)]C[Dab][AEEA][Aun]-OH; thioether N-14), for which the IC50 was found to be 9.3 nM.

The values above are taken from US20260070945A1, “MACROCYCLIC IMMUNOMODULATORS” (Bristol-Myers Squibb Company, priority 2022, published 2026).
